Results from the supplement of paper PMC13380429.

Key:
Conditions in all cases: 72 h
[1] = system: Calu-3; assay: relative viability EC50 (midpoint between 100% and the lowest measured viability); higher = less toxic
[2] = system: Caco-2; assay: as above
[3] = system: Vero E6; assay: as above
[4] = system: HepG2; assay: as above
[5] = system: U2OS; assay: as above
[6] = system: Calu-3; assay: cell viability relative to DMSO; higher = less toxic
[7] = system: Caco-2; assay: as above
[8] = system: Vero E6; assay: as above
[9] = system: HepG2; assay: as above
[10] = system: U2OS; assay: as above
[11] = system: Calu-3; assay: drug sensitivity score (DSS) for viability; higher = more toxic; extreme values may be limits of the assay
[12] = system: Caco-2; assay: as above
[13] = system: Vero E6; assay: as above
[14] = system: HepG2; assay: as above
[15] = system: U2OS; assay: as above

Row | Compound | relative viability EC50 [1] [µM] | relative viability EC50 [2] [µM] | relative viability EC50 [3] [µM] | relative viability EC50 [4] [µM] | relative viability EC50 [5] [µM] | cell viability ([6]; 1 nM) [%] | cell viability ([6]; 10 nM) [%] | cell viability ([6]; 100 nM) [%] | cell viability ([6]; 1000 nM) [%] | cell viability ([6]; 10000 nM) [%] | cell viability ([7]; 1 nM) [%] | cell viability ([7]; 10 nM) [%] | cell viability ([7]; 100 nM) [%] | cell viability ([7]; 1000 nM) [%] | cell viability ([7]; 10000 nM) [%] | cell viability ([8]; 1 nM) [%] | cell viability ([8]; 10 nM) [%] | cell viability ([8]; 100 nM) [%] | cell viability ([8]; 1000 nM) [%] | cell viability ([8]; 10000 nM) [%] | cell viability ([9]; 1 nM) [%] | cell viability ([9]; 10 nM) [%] | cell viability ([9]; 100 nM) [%] | cell viability ([9]; 1000 nM) [%] | cell viability ([9]; 10000 nM) [%] | cell viability ([10]; 1 nM) [%] | cell viability ([10]; 10 nM) [%] | cell viability ([10]; 100 nM) [%] | cell viability ([10]; 1000 nM) [%] | cell viability ([10]; 10000 nM) [%] | drug sensitivity score [11] | drug sensitivity score [12] | drug sensitivity score [13] | drug sensitivity score [14] | drug sensitivity score [15]
1 | CSCC[C@H](NC(=O)[C@H](CC(C)C)NC(=O)[C@@H](Cc1c[nH]c2ccccc12)NC(=O)[C@H](Cc1ccccc1)N(C)C(=O)[C@@H](Cc1c[nH]c2ccccc12)NC(=O)[C@@H](N)CCCNC(=N)N)C(N)=O [antagonist-g] | > 10 | > 10 | > 10 | > 10 | > 10 | 105 | 91 | 98.8 | 89.3 | 111 | 93.8 | 89.7 | 96.3 | 75.6 | 122 | 96.2 | 97 | 102 | 85.6 | 96.3 | 104 | 98.1 | 103 | 84.8 | 105 | 99.9 | 93.1 | 97.7 | 97 | 97.4 | 0 | 0 | 0 | 0 | 0
2 | CCCC1(CCC)CCC2(CCN(CCCN(CC)CC)C2)CC1 [atiprimod] | 2.1 | 2.66 | 2.38 | 1.89 | 2.82 | 103 | 103 | 101 | 86.9 | 0.7 | 99.2 | 94.7 | 98.4 | 94.9 | 20.7 | 97.9 | 98.7 | 101 | 92.1 | 16.9 | 91.1 | 94.8 | 93.2 | 83.3 | 0 | 101 | 105 | 95.8 | 96.1 | 14.6 | 7.7 | 5.1 | 5.9 | 8.3 | 5.3
3 | NC(=O)[C@@H]1CC[C@@H]2CN1C(=O)N2OS(=O)(=O)O [avibactam] | > 10 | > 10 | > 10 | > 10 | > 10 | 94.8 | 81.7 | 104 | 91.3 | 104 | 101 | 92.5 | 92.5 | 95.7 | 92.7 | 95 | 96.5 | 97.6 | 97.1 | 98.6 | 114 | 109 | 90.9 | 98.4 | 97.8 | 97.2 | 94.6 | 101 | 96.9 | 98.7 | 0 | 0 | 0 | 0 | 0
4 | COc1ccc2cc3[n+](cc2c1OC)CCc1cc2c(cc1-3)OCO2 [berberine] | > 10 | > 10 | > 10 | 2.23 | > 10 | 94.3 | 101 | 105 | 101 | 97.3 | 110 | 106 | 97.4 | 86.9 | 82.5 | 107 | 93 | 95.3 | 107 | 96.1 | 99.8 | 103 | 87.7 | 92.1 | 30.6 | 106 | 96.8 | 103 | 93.7 | 77.2 | 0 | 1.5 | 0 | 5.1 | 1.6
5 | Brc1c(NC2=NCCN2)ccc2nccnc12 [brimonidine] | > 10 | > 10 | > 10 | > 10 | > 10 | 103 | 98.1 | 88.1 | 97.2 | 103 | 107 | 97.2 | 108 | 90.7 | 103 | 99 | 102 | 97.5 | 100 | 102 | 98.1 | 97.6 | 96.7 | 107 | 105 | 100 | 105 | 99.6 | 96.6 | 106 | 0 | 0 | 0 | 0 | 0
6 | C=C1/C(=C\C=C2/CCC[C@]3(C)[C@@H]([C@H](C)/C=C/[C@@H](O)C4CC4)CC[C@@H]23)C[C@@H](O)C[C@@H]1O [calcipotriol] | > 10 | > 10 | > 10 | > 10 | > 10 | 95.4 | 108 | 102 | 93.7 | 96 | 94.7 | 88.6 | 99.6 | 88.3 | 89.9 | 97.5 | 96.7 | 98.2 | 92.3 | 91.9 | 101 | 88.5 | 95 | 99.6 | 94.6 | 99.5 | 96.9 | 99 | 94.8 | 93.5 | 0 | 0 | 0 | 0 | 0
7 | c1coc(-c2nnc3sc(C4CCCCC4)nn23)c1 [cardionogen-1] | > 10 | > 10 | > 10 | 1.69 | > 10 | 109 | 97.4 | 109 | 102 | 97.1 | 100 | 94.7 | 104 | 81.1 | 89.7 | 98.3 | 97.1 | 95.5 | 98 | 86.6 | 98.7 | 97.1 | 99.4 | 88.3 | 44.6 | 95 | 100 | 95.9 | 97.8 | 93.3 | 0 | 2.2 | 0.3 | 4.9 | 0
